# Like-named read-outs stand apart in the source and are kept apart here.
# Biological target: T1, SIRT1 (Homo sapiens, UniProt Q96EB6)
# T1 sequence (Q96EB6 1-747): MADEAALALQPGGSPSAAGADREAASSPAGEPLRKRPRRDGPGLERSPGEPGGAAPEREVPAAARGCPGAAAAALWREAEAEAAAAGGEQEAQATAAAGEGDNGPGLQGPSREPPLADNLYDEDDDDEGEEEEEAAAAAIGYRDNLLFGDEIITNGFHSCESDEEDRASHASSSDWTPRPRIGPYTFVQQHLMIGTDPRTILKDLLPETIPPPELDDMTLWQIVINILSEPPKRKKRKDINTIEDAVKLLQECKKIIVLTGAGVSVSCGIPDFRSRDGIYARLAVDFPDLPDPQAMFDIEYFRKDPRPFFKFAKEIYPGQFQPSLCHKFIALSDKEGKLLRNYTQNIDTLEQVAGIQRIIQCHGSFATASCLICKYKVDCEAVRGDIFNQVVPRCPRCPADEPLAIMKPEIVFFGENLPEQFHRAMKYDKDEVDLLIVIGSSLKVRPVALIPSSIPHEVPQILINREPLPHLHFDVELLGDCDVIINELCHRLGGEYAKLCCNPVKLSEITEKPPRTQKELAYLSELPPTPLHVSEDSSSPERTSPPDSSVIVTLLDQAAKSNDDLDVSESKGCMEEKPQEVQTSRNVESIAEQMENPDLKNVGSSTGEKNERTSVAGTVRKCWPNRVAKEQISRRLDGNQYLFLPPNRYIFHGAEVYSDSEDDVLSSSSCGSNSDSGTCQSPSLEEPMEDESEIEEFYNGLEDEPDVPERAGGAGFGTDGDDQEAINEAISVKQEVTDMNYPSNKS
# Experiment: Mass spectrometry based SIRT1 deacetylase activation assay (acetylated p53-derived peptide substrate)
# Assay type: biochemical
# [1] = 0.5 μM peptide substrate, 120 μM βNAD+, 10 nM SIRT1, 25 minutes at 25° C.
# [2] = 0.5 μM peptide substrate, 120 μM βNAD+, 10 nM SIRT1, 25 min at 25° C.
# [3] = 0.5 μM peptide substrate, 120 μM βNAD+, 10 nM SIRT1, 25 min at 25° C., read-out: EC1.5
SMILES,EC1.5,Fold Act. (percent maximum fold activation),EC1.5 [1],Fold Act. (percent maximum fold activation) [1],Fold Act. (percent maximum fold activation) [2],EC1.5 [3]
O=C(Nc1ccncc1)c1cccc2[nH]c(-c3cccc(C(F)(F)F)c3)nc12 [Compound 242],B (EC1.5 1-25 uM),B (Fold Activation <200%),–,–,–,–
O=C(Nc1ccccn1)c1cc(N2CCOCC2)cc2[nH]c(-c3cc(F)ccc3C(F)F)nc12 [Compound 769],–,–,A (EC1.5<1.0 uM),A (Fold activation >200%),–,–
O=C(Nc1cccnc1)c1cc(F)cc2[nH]c(-c3ccc(OC[C@H](O)CO)cc3C(F)F)nc12 [Compound 829],–,–,A (EC1.5<1.0 uM),A (Fold activation >200%),–,–
Fc1ccc(C(F)(F)F)c(-c2nc3c(NCc4cccnc4)cccc3[nH]2)c1 [Compound 670],–,–,C (EC1.5 >25 uM),B (Fold Activation <200%),–,–
Cc1cnc(NC(=O)c2cncc3[nH]c(-c4ccc(F)cc4C(F)(F)F)nc23)s1 [Compound 697],–,–,A (EC1.5<1.0 uM),A (Fold activation >200%),–,–
O=C(Nc1nccs1)c1cc(N2CCOCC2)cc2[nH]c(-c3cc(F)ccc3C(F)F)nc12 [Compound 768],–,–,A (EC1.5<1.0 uM),A (Fold activation >200%),–,–
O=C(Nc1cccc(OCC(O)CO)c1)c1cccc2[nH]c(-c3cc(F)ccc3C(F)(F)F)nc12 (stereo not drawn) [Compound 680],–,–,A (EC1.5<1.0 uM),A (Fold activation >200%),–,–
Cc1cc(C)nc(NC(=O)c2cccc3[nH]c(-c4ccccc4C(F)(F)F)nc23)c1 [Compound 345],A (EC1.5<1.0 uM),A (Fold activation >200%),–,–,–,–
Cc1cnc(NC(=O)c2cncc3[nH]c(-c4ccc(N5CCOCC5)cc4C(F)F)nc23)s1 [Compound 805],–,–,A (EC1.5<1.0 uM),A (Fold activation >200%),–,–
O=C(Nc1nccs1)c1cccc2[nH]c(-c3ccc(OCC(O)CO)cc3)nc12 (stereo not drawn) [Compound 325],A (EC1.5<1.0 uM),A (Fold activation >200%),–,–,–,–
O=C(Nc1cccc(CN2CCOCC2)n1)c1cccc2[nH]c(-c3cc(F)ccc3C(F)(F)F)nc12 [Compound 677],–,–,A (EC1.5<1.0 uM),A (Fold activation >200%),–,–
CC(C)(C)c1cccc(-c2nc3c(C(=O)Nc4ccccn4)cccc3[nH]2)c1OCCN1CCOCC1 [Compound 588],–,–,–,–,B (Fold Activation <200%),1000 to 25000 nM
CCCN1CCc2cc(-c3nc4c(C(=O)Nc5ncc(C)s5)cccc4[nH]3)ccc21 [Compound 570],–,–,–,–,B (Fold Activation <200%),1000 to 25000 nM
Cc1cnc(NC(=O)c2cccc3[nH]c(-c4ccc(OC5CCNCC5)cc4)nc23)s1 [Compound 537],–,–,–,–,A (Fold activation >200%),< 1000 nM
O=C(Nc1cccc(OC2CCNCC2)c1)c1cccc2[nH]c(-c3cc(F)ccc3C(F)(F)F)nc12 [Compound 525],–,–,–,–,A (Fold activation >200%),< 1000 nM
O=C(Nc1cccnn1)c1cccc2[nH]c(-c3ccc(N4CCOCC4)cc3C(F)F)nc12 [Compound 555],–,–,–,–,A (Fold activation >200%),< 1000 nM
Cc1cnc(NC(=O)c2cccc3[nH]c(-c4cc(F)ccc4C(F)(F)F)nc23)s1 [Compound 376],A (EC1.5<1.0 uM),A (Fold activation >200%),–,–,–,–
Cn1nc(C(F)(F)F)c(-c2nc3c(C(=O)Nc4nccs4)cccc3[nH]2)c1Cl [Compound 295],A (EC1.5<1.0 uM),A (Fold activation >200%),–,–,–,–

SMILES,EC1.5,Fold Act. (percent maximum fold activation),EC1.5 [1],Fold Act. (percent maximum fold activation) [1],Fold Act. (percent maximum fold activation) [2],EC1.5 [3]
O=C(Nc1nccs1)c1cccc2[nH]c(-c3ccc(F)c(F)c3)nc12 [Compound 214],C (EC1.5 >25 uM),B (Fold Activation <200%),–,–,–,–
O=C(Nc1nccs1)c1cccc2[nH]c(-c3cccc(C(F)(F)F)c3F)nc12 [Compound 217],C (EC1.5 >25 uM),B (Fold Activation <200%),–,–,–,–
O=C(Nc1ccccn1)c1cccc2[nH]c(-c3ccc(F)cc3C(F)F)nc12 [Compound 561],–,–,–,–,A (Fold activation >200%),< 1000 nM
CC1(C)CN(c2ccc(C(F)(F)F)c(-c3nc4c(C(=O)Nc5ccccn5)cccc4[nH]3)c2)CCO1 [Compound 709],–,–,A (EC1.5<1.0 uM),A (Fold activation >200%),–,–
O=C(Nc1ccccn1)c1cccc2[nH]c(-c3cc(N4CCOCC4)ccc3C(F)(F)F)nc12 [Compound 449],–,–,–,–,A (Fold activation >200%),< 1000 nM
O=C(Nc1cccc2[nH]c(-c3cc(F)ccc3C(F)(F)F)nc12)c1cnccn1 [Compound 387],B (EC1.5 1-25 uM),A (Fold activation >200%),–,–,–,–
O=C(Nc1ccccn1)c1cccc2[nH]c(-c3cccc(OC4CCNC4)c3)nc12 (stereo not drawn) [Compound 463],–,–,–,–,A (Fold activation >200%),1000 to 25000 nM
CS(=O)(=O)c1ccc(-c2nc3c(C(=O)Nc4nccs4)cccc3[nH]2)cc1 [Compound 405],–,–,–,–,B (Fold Activation <200%),1000 to 25000 nM
Cn1ccc(-c2nc3c(C(=O)Nc4nccs4)cccc3[nH]2)n1 [Compound 303],B (EC1.5 1-25 uM),A (Fold activation >200%),–,–,–,–
Cc1cc(-c2nc3c(C(=O)Nc4nccs4)cccc3[nH]2)no1 [Compound 230],A (EC1.5<1.0 uM),B (Fold Activation <200%),–,–,–,–
O=C(Nc1cccc(OC2CCNC2)c1)c1cccc2[nH]c(-c3ccccc3C(F)(F)F)nc12 (stereo not drawn) [Compound 526],–,–,–,–,A (Fold activation >200%),< 1000 nM
O=C(Nc1cccc(CN2CCNCC2)n1)c1cccc2[nH]c(-c3ccccc3C(F)(F)F)nc12 [Compound 682],–,–,A (EC1.5<1.0 uM),A (Fold activation >200%),–,–
O=C(Nc1cccnn1)c1cccc2[nH]c(-c3ccnn3-c3ccccc3)nc12 [Compound 467],–,–,–,–,A (Fold activation >200%),1000 to 25000 nM
O=C(Nc1cccc2[nH]c(-c3ccnn3-c3ccccc3)nc12)c1cscn1 [Compound 392],B (EC1.5 1-25 uM),A (Fold activation >200%),–,–,–,–
O=C(Nc1cccc(CN2CCCC2)n1)c1cccc2[nH]c(-c3ccc(Cl)cc3C(F)(F)F)nc12 [Compound 622],–,–,A (EC1.5<1.0 uM),A (Fold activation >200%),–,–
O=C(Nc1ccccn1)c1cccc2[nH]c(-c3cc(Cl)ccc3C(F)(F)F)nc12 [Compound 429],–,–,–,–,B (Fold Activation <200%),> 25000 nM
"Cc1cnc(NC(=O)c2cccc3[nH]c(-c4cnccc4C(F)(F)F)nc23)s1 [Compound 703, N-(5-methylthiazol-2-yl)-2-(4-(trifluoromethyl)pyridin-3-yl)-1H-benzo[d]imidazole-4-carboxamide]",–,–,A (EC1.5<1.0 uM),A (Fold activation >200%),–,–
O=C(Nc1nccs1)c1cccc2[nH]c(-c3ccncc3Cl)nc12 [Compound 294],B (EC1.5 1-25 uM),A (Fold activation >200%),–,–,–,–
